Measurements taken from US20080194584A1, “Nitrogen Heteroaromatic Compounds Which Bind To The Active Site Of Protein Kinase Enzymes” (priority 2004, published 2008).

tested on: Rho kinase (ROK, ROCK); assay: Rho kinase inhibitory activity (ROK activity); format: biochemical; design: key: +: active; ++: more active; +++: very active; conditions: assays conducted at 1-100 μM

| Structure (SMILES) | ROK activity |
| --- | --- |
| O=C(Cc1ccc(Cl)cc1)Nc1cncc(-c2ccncc2)c1 [Example 1, N-[3,4′]Bipyridinyl-5-yl-2-(4-chloro-phenyl)-acetamide] | + |
| Fc1cc(CNc2cccc(-c3ccncc3)c2)ccc1Cl [Example 2, (4-Chloro-3-fluoro-benzyl)-(3-pyridin-4-yl-phenyl)-amine] | +++ |
| Fc1cc(CNc2cncc(-c3ccncc3F)c2)ccc1Cl [Example 3, (4-Chloro-3-fluoro-benzyl)-(3′-fluoro-[3,4′]bipyridinyl-5-yl)-amine] | +++ |
| Fc1cc(CNc2cncc(-c3ccnc(Cl)c3)c2)ccc1Cl [Example 4, (2′-Chloro-[3,4′]bipyridinyl-5-yl)-(4-chloro-3-fluoro-benzyl)-amine] | + |
| Fc1cc(CNc2cncc(-c3ccncc3Cl)c2)ccc1Cl [Example 5, (3′-Chloro-[3,4′]bipyridinyl-5-yl)-(4-chloro-3-fluoro-benzyl)-amine] | +++ |
| Fc1cc(CNc2cncc(-c3ccnc(Cl)c3Cl)c2)ccc1Cl [Example 6, (4-Chloro-3-fluoro-benzyl)-(2′,3′-dichloro-[3,4′]bipyridinyl-5-yl)-amine] | + |
| Fc1cc(CNc2cncc(-c3cccc4ncccc34)c2)ccc1Cl [Example 7, (4-Chloro-3-fluoro-benzyl)-(5-quinolin-5-yl-pyridin-3-yl)-amine] | ++ |
| Fc1cc(CNc2cncc(-c3ccnc(Cl)c3F)c2)ccc1Cl [Example 8, (4-Chloro-3-fluoro-benzyl)-(2′-chloro-3′-fluoro-[3,4′]bipyridinyl-5-yl)-amine] | + |
| c1ccc(CNc2cncc(-c3ccncc3)c2)cc1 [Example 9, Benzyl-[3,4′]bipyridinyl-5-yl-amine] | +++ |
| Clc1cccc(Cl)c1CNc1cncc(-c2ccncc2)c1 [Example 10, [3,4′]Bipyridinyl-5-yl-(2,6-dichloro-benzyl)-amine] | + |
| FC(F)(F)c1cc(Cl)ccc1CNc1cncc(-c2ccncc2)c1 [Example 11, [3,4′]Bipyridinyl-5-yl-(4-chloro-2-trifluoromethyl-benzyl)-amine] | ++ |
| CC(O)CNc1cc(-c2cncc(NCc3ccc(Cl)cc3)c2)ccn1 (centres unmarked) [Example 12, 1-[5-(4-Chloro-benzylamino)-[3,4′]bipyridinyl-2′-ylamino]-propan-2-ol] | + |
| CC(C)(C)OC(=O)N1CCCC(CNc2cncc(-c3ccncc3)c2)C1 (centres unmarked) [Example 13, 3-([3,4′]Bipyridinyl-5-ylaminomethyl)-piperidine-1-carboxylic acid tert-butyl ester] | + |
| CC(C)(C)OC(=O)N1CCC(CNc2cncc(-c3ccncc3)c2)CC1 [Example 14, 4-([3,4′]Bipyridinyl-5-ylaminomethyl)-piperidine-1-carboxylic acid tert-butyl ester] | + |
| CC(C)(C)OC(=O)N1CCC(Nc2cncc(-c3ccncc3)c2)CC1 [Example 15, 4-([3,4′]Bipyridinyl-5-ylamino)-piperidine-1-carboxylic acid tert-butyl ester] | + |
| c1cc(-c2cncc(NCC3CCCNC3)c2)ccn1 (centres unmarked) [Example 16, [3,4′]Bipyridinyl-5-yl-piperidin-3-ylmethyl-amine] | ++ |
| FC(F)(F)c1cccc(CNc2cncc(-c3ccncc3)c2)c1 [Example 17, [3,4′]Bipyridinyl-5-yl-(3-trifluoromethyl-benzyl)-amine] | ++ |
| FC(F)(F)c1ccc(CNc2cncc(-c3ccncc3)c2)cc1 [Example 18, [3,4′]Bipyridinyl-5-yl-(4-trifluoromethyl-benzyl)-amine] | +++ |
| Fc1cc(Cl)ccc1CNc1cncc(-c2ccncc2)c1 [Example 19, [3,4′]Bipyridinyl-5-yl-(4-chloro-2-fluoro-benzyl)-amine] | +++ |
| O=C(Nc1cncc(-c2ccncc2)c1)c1ccc(Cl)cc1 [Example 20, N-[3,4′]Bipyridinyl-5-yl-4-chloro-benzamide] | + |
| O=S(=O)(Nc1cncc(-c2ccncc2)c1)c1ccc(Cl)cc1 [Example 21, N-[3,4′]Bipyridinyl-5-yl-4-chloro-benzenesulfonamide] | + |
| Fc1ccc(CNc2cncc(-c3ccncc3)c2)c(F)c1 [Example 22, [3,4′]Bipyridinyl-5-yl-(2,4-difluoro-benzyl)-amine] | +++ |

same assay, conditions: assays conducted at 1-100 μM, listed as N-[3,4′]Bipyridinyl-5-yl-2-(4-chloro-phenyl)-acetamide

| Structure (SMILES) | ROK activity |
| --- | --- |
| O=C(Cc1ccc(Cl)cc1)Nc1cncc(-c2ccncc2)c1 [Example 1, N-[3,4′]Bipyridinyl-5-yl-2-(4-chloro-phenyl)-acetamide] | ++ |
